Patent US10624345B2, “Protoporphyrinogen oxidase inhibitor mixtures” (Valent U.S.A. LLC, priority 2017, dated 2020)
“Also recorded” adds a separate entry of the source.

Key:
Hemp Sesbania = assay: Field trial, post-emergence weed control, Hemp Sesbania; assay type: in vivo; conditions: compared with the other adjuvant; in words
Experimental: (§1) A field trial was conducted in Mississippi, United States, to evaluate the impact of the C16 to C18 fatty acid methyl esters adjuvant system on the effectiveness of several herbicides. Rice, soybeans, cotton, peanut and corn seeds were planted and irrigated on two days after planting. Seven days after planting there was good stand of all of the crops, except only 4 of the 9 rows of rice were visible. The weeds were about 3 centimeters tall at this time. The treatments in Table 2 below were applied 13 days after planting. The rate of each treatment is below in Table 2 and all of the adjuvant systems were mixed with the herbicides at a rate of 1% v/v.
(§2) At the time of treatment: Hemp Sesbania was at the V4 growth stage and from about 3 to 5 about inches tall; Ivyleaf Morningglory was at the V3 growth stage and from about 2 to about 4 inches tall; Common Barnyardgrass was at the V5 growth stage and from about 2.5 to about 6 inches tall; Palmer Amaranth was at the vegetative growth stage and from about 2 to about 7 inches tall; Yellow Nutsedge was at the V8 growth stage and from about 3 to about 6 inches tall; and Broadleaf Signalgrass was at the second true leaf growth stage and from about 2 to about 4 inches tall.
(§3) The weeds were evaluated fourteen days after treatment. […]

Ivyleaf Morningglory = assay: Field trial, post-emergence weed control, Ivyleaf Morningglory; assay type: in vivo; conditions: compared with the other adjuvant; in words
Experimental: as §1, §2, §3

Common Barnyardgrass = assay: Field trial, post-emergence weed control, Common Barnyardgrass; assay type: in vivo, Echinochloa crus-galli; conditions: compared with the other adjuvant; in words
Experimental: as §1, §2, §3

Broadleaf Signalgrass = assay: Field trial, post-emergence weed control, Broadleaf Signalgrass; assay type: in vivo, Brachiaria platyhylla; conditions: compared with the other adjuvant; in words
Experimental: as §1, §2, §3

Palmer Amaranth = assay: Field trial, post-emergence weed control, Palmer Amaranth; assay type: in vivo; conditions: compared with the other adjuvant; in words
Experimental: as §1, §2, §3

Yellow Nutsedge = assay: Field trial, post-emergence weed control, Yellow Nutsedge; assay type: in vivo, Cyperus esculentus; conditions: compared with the other adjuvant; in words
Experimental: as §1, §2, §3

rice = assay: Field trial, crop phytotoxicity, rice; assay type: in vivo; conditions: compared with the other adjuvant; in words
Experimental: as §1
(§4) At the time of treatment: rice was at the first true leaf growth stage and from about 5 to 7 inches tall; soybeans were at the V2 growth stage and from about 5 to 7 inches tall; cotton was at the V2 growth stage and from about 5 to 7 inches tall; peanut was at the V5 growth stage and from about 3 to 5 inches tall; and corn was at the V3 growth stage and from about 9 to 12 inches tall.
(§5) The adjuvant system described in Example 1 above was used as the source of the C16 to C18 fatty acid methyl esters adjuvant system used in this study.
(§6) In this study, phytotoxicity of the crops was also evaluated.

soybeans = assay: Field trial, crop phytotoxicity, soybeans; assay type: in vivo; conditions: compared with the other adjuvant; in words
Experimental: as §1, §4, §5, §6

cotton = assay: Field trial, crop phytotoxicity, cotton; assay type: in vivo; conditions: compared with the other adjuvant; in words
Experimental: as §1, §4, §5, §6

peanut = assay: Field trial, crop phytotoxicity, peanut; assay type: in vivo; conditions: compared with the other adjuvant; in words
Experimental: as §1, §4, §5, §6

corn = assay: Field trial, crop phytotoxicity, corn; assay type: in vivo; conditions: compared with the other adjuvant; in words
Experimental: as §1, §4, §5, §6

weeds = assay: Field trial, impact of the adjuvant system on herbicide effectiveness, weeds overall; assay type: in vivo; conditions: compared with the other adjuvant; no weed named; in words
Experimental: as §1, §2
The weeds were evaluated fourteen days after treatment.
as §5

SMILES	Effect of C16 to C18 fatty acid methyl esters adjuvant system on effectiveness on Hemp Sesbania (Hemp Sesbania)	Effect of C16 to C18 fatty acid methyl esters adjuvant system on effectiveness on Ivyleaf Morningglory (Ivyleaf Morningglory)	Effect of C16 to C18 fatty acid methyl esters adjuvant system on effectiveness on Common Barnyardgrass (Common Barnyardgrass)	Effect of C16 to C18 fatty acid methyl esters adjuvant system on effectiveness on Broadleaf Signalgrass (Broadleaf Signalgrass)	Effect of C16 to C18 fatty acid methyl esters adjuvant system on effectiveness on Palmer Amaranth (Palmer Amaranth)	Effect of C16 to C18 fatty acid methyl esters adjuvant system on effectiveness on Yellow Nutsedge (Yellow Nutsedge)	Effect of C16 to C18 fatty acid methyl esters adjuvant system on phytotoxicity on rice (rice)	Effect of C16 to C18 fatty acid methyl esters adjuvant system on phytotoxicity on soybeans (soybeans)	Effect of C16 to C18 fatty acid methyl esters adjuvant system on phytotoxicity on cotton (cotton)	Effect of C16 to C18 fatty acid methyl esters adjuvant system on phytotoxicity on peanut (peanut)	Effect of C16 to C18 fatty acid methyl esters adjuvant system on phytotoxicity on corn (corn)	Effect of C16 to C18 fatty acid methyl esters adjuvant system on effectiveness/efficacy of the herbicide (weeds overall) (weeds)
CCOC(=O)COc1ncccc1Oc1cc(-n2c(=O)cc(C(F)(F)F)n(C)c2=O)c(F)cc1Cl [ethyl [3-[2-chloro-4-fluoro-5-(1-methyl-6-trifluoromethyl-2,4-dioxo-1,2,3,4-tetrahydropyrimidin-3-yl)phenoxy]-2-pyridyloxy]acetate]	did not increase the effectiveness	did not increase the effectiveness	increases the effectiveness	increases the effectiveness	did not increase the effectiveness	did not increase the effectiveness	increase the phytotoxicity	did not significantly increase phytotoxicity	did not significantly increase phytotoxicity	increase the phytotoxicity	did not significantly increase phytotoxicity	improved the efficacy
C#CCN1C(=O)COc2cc(F)c(N3C(=O)C4=C(CCCC4)C3=O)cc21 [flumioxazin]	–	–	–	–	–	–	–	–	–	–	–	did not improve the efficacy; also recorded: failed to increase the effectiveness
CCOC(=O)C(C)OC(=O)c1cc(Oc2ccc(C(F)(F)F)cc2Cl)ccc1[N+](=O)[O-] (centres unmarked) [lactofen]	–	–	–	–	–	–	–	–	–	–	–	did not improve the efficacy; also recorded: failed to increase the effectiveness
